Measurements: PubChem BioAssay (NCI)
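A five-concentration, 48-hour dose response in 96-well plates underlies each endpoint, interpolated linearly between surrounding concentrations. At the GI50, growth is halved. TGI marks complete inhibition of growth.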

Tests used:
Test in all cases: NCI-60 cell line screen, 48 h
CAKI-1 renal = system: CAKI-1 renal
HCT-15 colon = system: HCT-15 colon
NCI-H23 lung = system: NCI-H23 lung
OVCAR-3 ovarian = system: OVCAR-3 ovarian
OVCAR-5 ovarian = system: OVCAR-5 ovarian
SK-MEL-5 melanoma = system: SK-MEL-5 melanoma
TK-10 renal = system: TK-10 renal
UACC-257 melanoma = system: UACC-257 melanoma
UACC-62 melanoma = system: UACC-62 melanoma
UO-31 renal = system: UO-31 renal

Row | SMILES | TGI (CAKI-1 renal) [µM] | TGI (HCT-15 colon) | TGI (NCI-H23 lung) [µM] | TGI (OVCAR-3 ovarian) [µM] | TGI (OVCAR-5 ovarian) [µM] | TGI (SK-MEL-5 melanoma) [µM] | TGI (TK-10 renal) [µM] | TGI (UACC-257 melanoma) [µM] | TGI (UACC-62 melanoma) [µM] | TGI (UO-31 renal) [µM] | GI50 (CAKI-1 renal) [µM] | GI50 (HCT-15 colon) [µM] | GI50 (NCI-H23 lung) [µM] | GI50 (OVCAR-3 ovarian) [µM] | GI50 (OVCAR-5 ovarian) [µM] | GI50 (SK-MEL-5 melanoma) [µM] | GI50 (TK-10 renal) [µM] | GI50 (UACC-257 melanoma) [µM] | GI50 (UACC-62 melanoma) [µM] | GI50 (UO-31 renal) [µM]
1 | CC(=O)O[C@H]1C(=O)[C@]2(C)[C@@H](OC(=O)OCC(O)CO)C[C@H]3OC[C@@]3(OC(C)=O)[C@H]2[C@H](OC(=O)c2ccccc2)[C@]2(O)C[C@H](OC(=O)[C@H](O)[C@@H](NC(=O)c3ccccc3)c3ccccc3)C(C)=C1C2(C)C (stereo partly specified) | > 68.8 | 10.9 µM | > 43.2 | < 0.01 | 20.9 | 19.6 | 70.8 | 22.2 | 21.2 | > 100 |  |  |  |  |  |  |  |  |  | 
2 | CC(C)(C)CC(C)(C)Cc1ccc(OCCOCC[N+](C)(C)Cc2ccccc2)cc1 | 13.8 | 33.5 µM | 3.8 | 3.09 | 15.8 | 1.79 | 12.7 | 3.18 | 2.54 | 34.7 | 3.47 | 14.4 | 1.45 | 1.34 | 3.86 | 0.517 | 2.83 | 1.51 | 1.26 | 14.2
3 | O=C(CCN1CCCC1)Nc1ccc2c(NCCCCc3ccccc3)c3ccccc3nc2c1 | 22.3 | 3.1 µM | 2.4 | 2.57 | 2.71 | 2.91 | 2.86 | 3.5 | 3.12 | 2.92 | 9.49 | 1.62 | 1.1 | 1.25 | 1.38 | 1.56 | 1.4 | 1.8 | 1.67 | 1.55
4 | COc1cc(-c2ccc(-c3ccc(C(=N)N)s3)s2)cc(OC)c1OC | 3.28 | 4.51 µM | 8.04 | 4.71 | 3.25 | 2.88 | 7.34 | 4.02 | 3.17 | 3.54 | 1.7 | 1.91 | 2.61 | 2.22 | 1.47 | 1.52 | 2.7 | 2.22 | 1.7 | 1.74
5 | N#Cc1ccc(Nc2nc3nc[nH]c3c(=O)[nH]2)cc1 | > 100 | > 100 µM | > 100 | > 100 | > 100 | > 100 | > 100 | > 100 | > 100 | > 100 |  |  |  |  |  |  |  |  |  | 
6 | NC(=O)c1cc2ccccc2c(N=Nc2ccccc2)c1O | 69.9 | > 100 µM | > 100 | > 100 | > 100 | > 100 | > 100 | > 100 | > 100 | > 100 |  |  |  |  |  |  |  |  |  | 
7 | CN1CCN(c2ccc3nc(-c4ccc(OCCCN5C(=O)c6cccc7cccc(c67)C5=O)cc4)[nH]c3c2)CC1 | > 100 |  | 55.9 | 95.6 | 3.38 |  | > 71.2 | 51.8 | 10.1 | 43.1 | 18.8 |  | 8.1 | 27.1 | 1.89 |  | 8.54 | 24.8 | 5.18 | 14.5
8 | Cc1c2cc[n+](C)cc2c(COC2OC(CO)C(O)C2O)c2c3ccccc3n(C)c12 (stereo unspecified) | > 100 | > 100 µM | > 100 | > 100 | > 100 | > 100 |  | > 100 | > 100 | > 100 |  |  |  |  |  |  |  |  |  | 
9 | Cc1c2cc[n+](C)cc2c(C)c2c1[nH]c1ccc(O)cc12 | > 100 | > 100 µM | 63.4 | > 89.3 | > 100 | 58.8 | > 100 | > 90.6 | 82.1 | 86.8 |  |  |  |  |  |  |  |  |  | 
10 | CCP(=O)(CC)C(Cl)(Cl)C(=O)NC | > 100 | > 100 µM | > 100 | > 100 | > 100 | > 100 | > 100 | > 100 |  | > 100 |  |  |  |  |  |  |  |  |  | 
11 | C[Si](C)(C)C#C[I+]c1ccccc1 | > 100 | 56.1 µM | > 100 | 86.2 | > 100 | > 100 | > 100 | > 100 | > 100 | > 100 |  |  |  |  |  |  |  |  |  | 
12 | COc1cccc2c1C(=O)c1c(O)c3c(c(O)c1C2=O)C[C@@](O)(C(C)=O)C[C@@H]3OC1CC(N)C(O)C(C)O1 (stereo partly specified) |  | 8.07 µM [middle of 6 runs] |  |  |  |  |  |  |  |  |  |  | < 0.0235 | 0.0664 |  | < 0.018 | 0.144 | 0.0685 | < 0.0166 | 
13 | CCOC(=O)c1c(NC(=S)NCc2ccccc2)sc2c1CCN(C)C2 | > 100 | > 100 µM | > 100 | > 100 | > 100 | > 100 | > 100 | > 100 | > 100 | > 100 |  |  |  |  |  |  |  |  |  | 
